Data from patent US6440971B1, “Binuclear complex” (A+ Science Invest AB, priority 1997, dated 2002).

Key:
Lung carcinoma HBT182 = assay: growth inhibition of tumour cell lines; conditions: read-out: half maximum growth inhibitory concentration (IC50), Δ,Δ-enantiomers of (I)-(IV), Δ-enantiomer of (V)
SUDHL 1 = assay: growth inhibition of tumour cell lines; conditions: read-out: half maximum growth inhibitory concentration (IC50), Δ,Δ-enantiomers of (I)-(IV), Δ-enantiomer of (V)
LAMA = assay: growth inhibition of tumour cell lines; conditions: read-out: half maximum growth inhibitory concentration (IC50), Δ,Δ-enantiomers of (I)-(IV), Δ-enantiomer of (V)
calf thymus DNA = assay: sodium dodecylsulphate-driven dissociation of the DNA complex; format: binding; conditions: [NaCl]=159 mM
Method: While the association reaction is relatively insensitive to the ionic strength of the solution, the dissociation is much faster at physiological salt concentrations, however, the rate constant is still only 0.008 S^−1 at [NaCl]=159 mM.

DNA = assay: linear dichroism of complex bound to DNA; format: binding; conditions: 10 mM and 200 mM aqueous NaCl, [Ru]=5 μM, P/Ru=30; negative signals at 380 and 470 nm
Excerpt: The properties of the Δ,Δ enantiomer of (I) regarding DNA binding was then studied.
The amplitude of the negative signals 380 and 470 nm indicate bis-intercalation of the complex (Lincoln, P. et al. JACS 118 (1996) 2644).

| Molecule | IC50 (Lung carcinoma HBT182) [µM] | IC50 (SUDHL 1) [µM] | IC50 (LAMA) [µM] | dissociation rate constant (calf thymus DNA) [S^−1] | DNA binding mode (DNA) |
| --- | --- | --- | --- | --- | --- |
| [Cl-].[Cl-].[Ru+2].c1ccc2nc3c4cccnc4c4ncccc4c3nc2c1.c1cnc2c(c1)ccc1cccnc12.c1cnc2c(c1)ccc1cccnc12 [(V), reference compound] | 38 | 39 | 43 |  |  |
| Δ,Δμ-[N,N′-bis(12-cyano-12,13-dihydro-11H-cyclopentadipyrido[b:3,2-h:2′,3′-j]phenazine-12-carbonyl)-1,4-diaminobutane N^4N^5,N^4,N^5′]-tetra(2,2′-bipyridine N^1,N^1′)diruthenium(4+)-tetrachloride [(II)] | 8 | 12 | 9 |  |  |
| μ-[N,N′-bi (12-cyano-12,13-dihydro-11H-cyclopentadipyrido[b:3,2-h:7′,3′-j]phenazine-12-carbonyl)-1,2-diaminoethane N^4,N^5,N^4′,N^5′]-tetra(2,2′-bipyridine N^1,N^1′)-diruthenium(4+)-tetrachloride [(IV)] | 10 | 22 | 16 |  |  |
| μ-[N,N′-bis(12-cyano-12,3-dihydro-11H-cyclopentadipyrido[b:3,2-h:2′,3′-j]phenazine-12-carbonyl)-1,2-diaminoethane N^4,N^5,N^4′,N^5′]-tetra(1,10-phenanthroline N^1,N^10)-diruthenium(4+)-tetrachloride [(III)] | 19 | 14 | 12 |  |  |
| μ-[N,N′-bis(12-cyano-12,13-dihydro-11H-cyclopentadipyrido[b:3,2-h:2′,3′-j]phenazine-12-carbonyl)-1,4-diaminobutane-N^4,N^5,N′^4,N′^5]-tetra (1,10-phenanthroline N^1,N^10) diruthenium(4+) -tetra-chloride [(I)] | 9 | 14 | 8 | 0.008 | bis-intercalation |
